Publication PMC8046226, “Koala cathelicidin PhciCath5 has antimicrobial activity, including against Chlamydia pecorum” (PLoS ONE, 2021)
Converted amounts (≈) assume the structure as drawn. Where two headings read alike, the source gives them in different places. Residues, ends and D or L forms follow the SMILES beside them. No end group written: not given here.

Columns and labels:
C. pecorum IPTaLE = experiment: Chlamydia pecorum antimicrobial susceptibility (elementary body inactivation, IFU/mL); type: cell-based; settings: 125, 250 and 500μg/mL; less than half an order of magnitude difference in chlamydial inclusions compared with the control
Procedure: (§1) C. pecorum IPTaLE and MarsBar were cultured in mouse McCoy B cells, on DMEM supplemented with 10% foetal calf serum (FCS), 0.1mg/mL streptomycin and 0.05mg/mL gentamicin at 37°C in a 5% CO2 atmosphere. Cell lines were routinely tested for mycoplasma contamination every 2 months. Prior to performing antimicrobial susceptibility assays, 96-well plates were seeded with 30,000 host cells per well 24 hours prior to chlamydial infection as described previously. For the antimicrobial assays, koala cathelicidin mature peptides, PhciCath1, 2, 3, 5 and 6, were solubilized in water for cell culture with 0.01% acetic acid, and two-fold dilutions were made in sucrose-phosphate-glutamic acid (SPG) media from 1mg to 250μg/mL, in triplicate. Cathelicidin containing wells were diluted one in two with C. pecorum IPTaLE and MarsBar EBs and incubated for 2 hours at 37°C, giving a final cathelicidin concentration of 500, 250 and 125μg/mL. A negative SPG only control was included. To exclude the possibility of cathelicidin toxicity to McCoy cells, cathelicidin dilutions were removed by centrifugation and C. pecorum EBs re-suspended in DMEM supplemented with 10% FCS, 0.1mg/mL streptomycin and 0.05mg/mL gentamycin. The suspension was used to infect a McCoy B ATCC CRL-1696 cell monolayer at a Multiplicity of Infection (MOI) of 0.6 as described previously. […]

C. pecorum MarsBar = experiment: as above; type: cell-based; settings: 125, 250 and 500μg/mL; less than half an order of magnitude difference in chlamydial inclusions compared with the control
Procedure: as §1

[1] = test system: C. parapsilosis ATCC 22019; experiment: Broth microdilution susceptibility assay (MIC); type: cell-based, Candida parapsilosis; settings: broth microdilution (CLSI), yeast nitrogen base (YNB) for fungi, 35°C, 20–48 hours
Procedure: (§2) Antimicrobial activity was determined against a range of bacteria and fungi from humans and animals using a broth microdilution susceptibility assay according to clinical laboratory standards institute (CLSI) guidelines in 96 well polypropylene plates as described previously. Briefly, cathelicidins were dissolved in DMSO and serially diluted, in cation-adjusted Mueller Hinton Broth (MH II B) with or without 10% lysed horse blood for bacteria, and yeast nitrogen base (YNB) for fungi. Cathelicidin concentrations ranged between 64μg/mL and 0.125μg/mL in a final volume of 100μL. For all bacteria and fungi tested, ampicillin, tetracycline and fluconazole were included as positive controls, in addition to a media-only control and growth control (no inhibitor). Bacteria and fungi were sub-cultured 20–24 hours prior to the test, suspended in saline and their concentration adjusted to a 0.5 McFarland standard. Microorganisms were then diluted to a concentration of 0.5–1.0x10^6 cells/mL, with colony counts performed to confirm microorganism density, and 100μL was dispensed into the wells of the cathelicidin dilution plate. […] Antimicrobial activity was expressed as minimum inhibitory concentration (MIC), which was defined as the lowest concentration of cathelicidin preventing visible bacterial growth, relative to the no-drug control. […]

S. pyogenes ATCC19615 = type: cell-based
Procedure: (§3) Antimicrobial activity was determined against a range of bacteria and fungi from humans and animals using a broth microdilution susceptibility assay according to clinical laboratory standards institute (CLSI) guidelines in 96 well polypropylene plates as described previously. Briefly, cathelicidins were dissolved in DMSO and serially diluted, in cation-adjusted Mueller Hinton Broth (MH II B) with or without 10% lysed horse blood for bacteria, and yeast nitrogen base (YNB) for fungi. Cathelicidin concentrations ranged between 64μg/mL and 0.125μg/mL in a final volume of 100μL. For all bacteria and fungi tested, ampicillin, tetracycline and fluconazole were included as positive controls, in addition to a media-only control and growth control (no inhibitor). Bacteria and fungi were sub-cultured 20–24 hours prior to the test, suspended in saline and their concentration adjusted to a 0.5 McFarland standard. Microorganisms were then diluted to a concentration of 0.5–1.0x10^6 cells/mL, with colony counts performed to confirm microorganism density, and 100μL was dispensed into the wells of the cathelicidin dilution plate. All plates were incubated at 35°C for 20–48 hours depending on the strain. Antimicrobial activity was expressed as minimum inhibitory concentration (MIC), which was defined as the lowest concentration of cathelicidin preventing visible bacterial growth, relative to the no-drug control. The same microdilution susceptibility assay was performed using Mueller Hinton Broth without the addition of the divalent cations calcium and magnesium (MHB), to test the effect of the cations on PhciCath5 activity against the ATCC strains E. coli 25922 and S. aureus 29213.

S. aureus ATCC29213 = type: cell-based
Procedure: as §3

S. mutans = type: cell-based
Procedure: as §3

E. coli ATCC25922 = type: cell-based
Procedure: as §3

S. pneumoniae ATCC49619 = type: cell-based
Procedure: as §3

S. agalactiae ATCC12386 = type: cell-based
Procedure: as §3

S. lutetiensis = type: cell-based
Procedure: as §3

S. oralis = type: cell-based
Procedure: as §3

P. aeruginosa ATCC27853 = type: cell-based
Procedure: as §3

S. salivarius = type: cell-based
Procedure: as §3

S. dysgalactiae = type: cell-based
Procedure: as §3

MRSA (animal isolate) = type: cell-based, Staphylococcus aureus; settings: broth microdilution (CLSI), MH II B with magnesium and calcium cations, 35°C, 20–48 hours
Procedure: as §2

C. krusei ATCC 6258 = experiment: Broth microdilution susceptibility assay (MIC); type: cell-based, Candida krusei; settings: broth microdilution (CLSI), yeast nitrogen base (YNB) for fungi, 35°C, 20–48 hours
Procedure: as §2

[2] = test system: L. monocytogenes (animal isolate); experiment: Broth microdilution susceptibility assay (MIC); type: cell-based; settings: broth microdilution (CLSI), MH II B with magnesium and calcium cations, 35°C, 20–48 hours
Procedure: as §3

[3] = test system: S. agalactiae (animal isolate); experiment: Broth microdilution susceptibility assay (MIC); type: cell-based; settings: broth microdilution (CLSI), MH II B with magnesium and calcium cations, 35°C, 20–48 hours
Procedure: as §3

[4] = test system: S. aureus (animal isolate); experiment: Broth microdilution susceptibility assay (MIC); type: cell-based; settings: broth microdilution (CLSI), MH II B with magnesium and calcium cations, 35°C, 20–48 hours
Procedure: as §3

[5] = test system: P. multocida (animal isolate); experiment: Broth microdilution susceptibility assay (MIC); type: cell-based; settings: broth microdilution (CLSI), MH II B with magnesium and calcium cations, 35°C, 20–48 hours
Procedure: as §3

S. equi (animal isolate) = experiment: Broth microdilution susceptibility assay (MIC); type: cell-based; settings: broth microdilution (CLSI), MH II B with magnesium and calcium cations, 35°C, 20–48 hours
Procedure: as §3

[6] = test system: P. aeruginosa (animal isolate); experiment: Broth microdilution susceptibility assay (MIC); type: cell-based; settings: broth microdilution (CLSI), MH II B with magnesium and calcium cations, 35°C, 20–48 hours
Procedure: as §3

[7] = test system: K. pneumoniae (animal isolate); experiment: Broth microdilution susceptibility assay (MIC); type: cell-based; settings: broth microdilution (CLSI), MH II B with magnesium and calcium cations, 35°C, 20–48 hours
Procedure: as §3

C. albicans = experiment: Broth microdilution susceptibility assay (MIC); type: cell-based; settings: broth microdilution (CLSI), yeast nitrogen base (YNB) for fungi, 35°C, 20–48 hours
Procedure: as §3

C. glabrata = experiment: Broth microdilution susceptibility assay (MIC); type: cell-based; settings: broth microdilution (CLSI), yeast nitrogen base (YNB) for fungi, 35°C, 20–48 hours
Procedure: as §3

E. coli (animal isolate) = experiment: Broth microdilution susceptibility assay (MIC); type: cell-based; settings: broth microdilution (CLSI), MH II B with magnesium and calcium cations, 35°C, 20–48 hours
Procedure: as §3

C. trachomatis = settings: cited from earlier work
Excerpt: Koala cathelicidin PhciCath5 inactivated C. pecorum MarsBar and IPTaLE elementary bodies (EB) and was the only peptide tested that caused biologically and statistically significant reductions in chlamydial inclusions. […] Timing of cathelicidin release from immune and epithelial cells within the host may not enable direct interaction with EB. […] Indeed, proteases secreted by this C. trachomatis neutralise LL-37 anti-chlamydial activity, thereby evading AMP attack and ensuring extracellular EB survival. ...

Molecule: CC[C@H](C)[C@H](NC(=O)[C@H](CCCNC(=N)N)NC(=O)[C@H](CCCCN)NC(=O)[C@H](Cc1ccccc1)NC(=O)[C@H](CCCNC(=N)N)NC(=O)[C@H](CC(C)C)NC(=O)[C@@H]1CCCN1C(=O)[C@H](CCC(=O)O)NC(=O)[C@@H]1CCCN1C(=O)[C@@H]1CCCN1)C(=O)N[C@@H](CCCNC(=N)N)C(=O)N[C@@H](CS)C(=O)N[C@@H](CC(C)C)C(=O)N[C@@H](CC(N)=O)C(=O)NCC(=O)N[C@@H](CCCNC(=N)N)C(=O)N[C@@H](CCCCN)C(=O)N[C@@H](CS)C(=O)N[C@@H](CC(N)=O)C(=O)N[C@@H](Cc1ccc(O)cc1)C(=O)N[C@@H](Cc1c[nH]cn1)C(=O)N[C@@H](CC(N)=O)C(=O)N[C@@H](CC(C)C)C(=O)N[C@@H](CC(C)C)C(=O)N[C@@H](CC(C)C)C(=O)N[C@H](C(=O)N[C@H](C(=O)N[C@H](C(=O)N1CCC[C@H]1C(=O)N[C@@H](Cc1c[nH]cn1)C(=O)N[C@@H](Cc1c[nH]c2ccccc12)C(=O)N[C@@H](CCCNC(=N)N)C(=O)N[C@H](C(=O)N1CCC[C@H]1C(=O)N[C@@H](CCCCN)C(=O)NCC(=O)N[C@@H](CCCCN)C(=O)O)[C@@H](C)CC)C(C)C)[C@@H](C)CC)[C@@H](C)O [PhciCath3] (H-PPEPLRFKRIRCLNGRKCNYHNLLLTIVPHWRIPKGK-OH)
- activity against C. pecorum IPTaLE up to 500ug/mL (C. pecorum IPTaLE): ineffective
- activity against C. pecorum MarsBar up to 500ug/mL (C. pecorum MarsBar): ineffective

Molecule: CC[C@H](C)[C@H](NC(=O)CNC(=O)CNC(=O)[C@H](CCCNC(=N)N)NC(=O)[C@@H](N)CCCCN)C(=O)N[C@@H](Cc1c[nH]c2ccccc12)C(=O)N[C@@H](CCCCN)C(=O)N[C@@H](CC(C)C)C(=O)N[C@H](C(=O)N[C@@H](CCCNC(=N)N)C(=O)N1CCC[C@H]1C(=O)N[C@@H](CC(C)C)C(=O)NCC(=O)N[C@@H](CCCNC(=N)N)C(=O)NCC(=O)N[C@@H](C)C(=O)NCC(=O)N[C@@H](CCCNC(=N)N)C(=O)N[C@H](C(=O)N[C@@H](CC(C)C)C(=O)N[C@@H](CCCNC(=N)N)C(=O)N[C@@H](Cc1c[nH]cn1)C(=O)N[C@@H](Cc1ccccc1)C(=O)N[C@@H](Cc1c[nH]cn1)C(=O)N[C@H](C(=O)N[C@@H](CC(=O)O)C(=O)N[C@@H](Cc1ccccc1)C(=O)N[C@@H](CS)C(=O)NCC(=O)N[C@@H](CC(N)=O)C(=O)N[C@@H](CS)C(=O)O)[C@@H](C)CC)[C@@H](C)CC)[C@@H](C)CC [PhciCath5] (H-KRGGIWKLIRPLGRGAGRILRHFHIDFCGNC-OH)
- MIC [1]: 32 µg/mL (≈ 9.02 µM)
- MIC (S. pyogenes ATCC19615): 64 µg/mL (≈ 18 µM)
- MIC (S. aureus ATCC29213): 16 µg/mL (≈ 4.51 µM)
- MIC (in brackets) (S. aureus ATCC29213): 11 µg/mL (≈ 3.1 µM)
- MIC (S. mutans): >64 µg/mL
- MIC (E. coli ATCC25922): 64 µg/mL (≈ 18 µM)
- MIC (in brackets) (E. coli ATCC25922): 11 µg/mL (≈ 3.1 µM)
- MIC (S. pneumoniae ATCC49619): >64 µg/mL
- MIC (S. agalactiae ATCC12386): 64 µg/mL (≈ 18 µM)
- MIC (S. lutetiensis): >64 µg/mL
- MIC (S. oralis): >64 µg/mL
- MIC (P. aeruginosa ATCC27853): >64 µg/mL
- MIC (S. salivarius): 64 µg/mL (≈ 18 µM)
- MIC (S. dysgalactiae): >64 µg/mL
- MIC (MRSA (animal isolate)): 16 µg/mL (≈ 4.51 µM)
- MIC (C. krusei ATCC 6258): 64 µg/mL (≈ 18 µM)
- MIC [2]: 64 µg/mL (≈ 18 µM)
- MIC [3]: 64 µg/mL (≈ 18 µM)
- MIC [4]: 8 µg/mL (≈ 2.25 µM)
- MIC [5]: >64 µg/mL
- MIC (S. equi (animal isolate)): >64 µg/mL
- MIC [6]: >64 µg/mL
- MIC [7]: >64 µg/mL
- MIC (C. albicans): >64 µg/mL
- MIC (C. glabrata): >64 µg/mL
- MIC (E. coli (animal isolate)): 16 µg/mL (≈ 4.51 µM)

Molecule: PG-1: pig protegrin PG-1, a eutherian cathelicidin (RGGRLCYCRRRFCVCVGR; ends and bridges not checked; cysteine pairing not given here; UniProt P32194 131-148, looked up)
- concentration which reduced the infectivity of C. trachomatis (C. trachomatis; single round of infection): 1.25 µg/mL
- reduction in infectivity (C. trachomatis; treatment of extracellular EBs): ~100%
- reduction in infectivity (C. trachomatis; treatment of intracellular C. trachomatis): 67%
